In patent US11891601B2, “Method to enhance the transcription regulation of SUPT4H on genes containing repetitive nucleotide sequences” (National Yang-Ming University, priority 2018, dated 2024):

Test system: HD-Drosophila expressing mutant HTT97Q
Assay: Rough eye phenotype in HD-Drosophila (Gmr-HTT97Q)
Assay type: in vivo, Drosophila melanogaster
Conditions: 10 μM 6CR in media, 4-day-old progenies
Experimental: The Gmr-ga14-UAS-HTT97Q/cyo line expressing HTT97Q under the control of Gmr-gal4 in compound eyes was provided by MT SU (National Taiwan Normal University, Taipei, Taiwan). Fly stock was maintained and crossed at 25° C. on a standard cornmeal yeast agar medium.
In each compound treatment experiment, 15 Gmr-ga14-UAS-HTT97Q/cyo male flies were crossed with 15 Gmr-ga14-UAS-HTT-97Q/cyo females in a vial containing 10 mL of media supplemented with the testing compound at a final concentration of 10 μM 6CR (Sigma) or/and 100 μM Tropolone (Sigma). 6-chloropurine riboside (6CR) is a chemical reagent that inhibits the activity of SUPT4H by preventing the complex formation of SUPT4H/SUPT5H (Patent No.: US2018/0064744A1). Parent flies were removed after 7 days, and 4-day-old progenies carrying one Gmr-ga14-UAS-HTT97Q allele were collected for eye morphology examination. […] In each treatment group, flies were analyzed and normalized with control flies. […]
Please refer to FIG. 8. […] After parent fly removal, the 4-day-old progenies carrying one Gmr-ga14-UAS-HTT97Q allele were collected and analyzed for eye morphology. […] 4-day-old progenies as described above were collected and analyzed the levels of mutant HTT by Western blotting. α-tubulin was included and served as a loading control. […]

OC[C@H]1O[C@@H](n2cnc3c(Cl)ncnc32)[C@H](O)[C@@H]1O [6-chloropurine riboside (6CR), 6-chloropurine riboside]
rescue of rough eye phenotype, 6CR alone: rescue effect
